In patent US9662341B2, “Multifunctional topical formulation for the treatment of acne vulgaris and other skin conditions” (Kantian Sciences Corporation, priority 2011, dated 2017):
Read-outs that look alike come from different tables or passages of the source.

Experiments:
[1] = HONO form in ratios of >~2:1 acid/salt
acne = settings: cited from earlier work
E. coli = experiment: Kill of E. coli within 30 seconds of contact (inventor's earlier studies); format: cell-based
[2] = Percentage of mandelic acid in acid and salt forms at varying pH values; format: physicochemical
Text: The same consideration of activity vs. acid:salt forms applies to mandelic acid, where the antimicrobial activity of an aqueous solution containing this material is strongly dependent on the pH of the system.

## O=NO [Nitrite]
pH 1.5
  Nitrite %: 1.6%
pH 2.0
  Nitrite %: 4.8%
pH 2.3
  Nitrite %: 9.1%
pH 2.6
  Nitrite %: 16.7%
pH 2.8
  Nitrite %: 24.0%
pH 3.0
  Nitrite %: 33.3%
pH 3.3
  Nitrite %: 50.0%
pH 3.5
  Nitrite %: 61.2%
pH 4.0
  Nitrite %: 83.4%
pH 4.5
  Nitrite %: 94.0%
pH 5.0
  Nitrite %: 98.0%

## O=NO [nitrous acid]
[1]
  longer-range stability of nitrous acid systems: significantly diminished
pH 1.5
  Nitrous Acid %: 98.4%
pH 2.0
  Nitrous Acid %: 95.2%
pH 2.3
  Nitrous Acid %: 90.9%
pH 2.6
  Nitrous Acid %: 83.3%
pH 2.8
  Nitrous Acid %: 76.0%
pH 3.0
  Nitrous Acid %: 66.7%
pH 3.3
  Nitrous Acid %: 50.0%
pH 3.5
  Nitrous Acid %: 38.8%
pH 4.0
  Nitrous Acid %: 16.6%
pH 4.5
  Nitrous Acid %: 6.0%
pH 5.0
  Nitrous Acid %: 2.0%

## O=C(O)CCCCCCCC(=O)O [azelaic acid]
acne; after starting topical application
  Time for acne lesions to start disappearing: one to two months
acne; benzoyl peroxide, tretinoin, antibiotics as comparators
  Efficacy versus other topical Rx formulations: works as well as other topical Rx formulations

## O=C(O)C(O)c1ccccc1 (centres unmarked) [mandelic acid]
E. coli
  E. coli killed relative to malic acid: 1.5 million
E. coli; same conditions
  E. coli killed relative to lactic acid: 3000 times
[2]; pH 2.46
  Mandelic Acid %: 90%
[2]; pH 2.81
  Mandelic Acid %: 80%
[2]; pH 3.04
  Mandelic Acid %: 70%
[2]; pH 3.23
  Mandelic Acid %: 60%
[2]; pH 3.41
  Mandelic Acid %: 50%
[2]; pH 3.59
  Mandelic Acid %: 40%
[2]; pH 3.78
  Mandelic Acid %: 30%
[2]; pH 4.01
  Mandelic Acid %: 20%

## CC(O)C(=O)O (centres unmarked) [lactic acid]
E. coli
  E. coli killed relative to malic acid: 500 times

## O=C(O)[C@H](O)c1ccccc1 [Mandelate]
[2]; pH 2.46
  Mandelate %: 10%
[2]; pH 2.81
  Mandelate %: 20%
[2]; pH 3.04
  Mandelate %: 30%
[2]; pH 3.23
  Mandelate %: 40%
[2]; pH 3.41
  Mandelate %: 50%
[2]; pH 3.59
  Mandelate %: 60%
[2]; pH 3.78
  Mandelate %: 70%
[2]; pH 4.01
  Mandelate %: 80%
